Target: T1, HsPepT2 (Homo sapiens, UniProt Q16348)
T1 construct: The wild-type HsPepT2 gene was cloned into a pXLG vector; expressed in transfected cells; host or cells: HEK293F cells, transient transfection (pXLG vector)
T1 sequence (Q16348 1-729): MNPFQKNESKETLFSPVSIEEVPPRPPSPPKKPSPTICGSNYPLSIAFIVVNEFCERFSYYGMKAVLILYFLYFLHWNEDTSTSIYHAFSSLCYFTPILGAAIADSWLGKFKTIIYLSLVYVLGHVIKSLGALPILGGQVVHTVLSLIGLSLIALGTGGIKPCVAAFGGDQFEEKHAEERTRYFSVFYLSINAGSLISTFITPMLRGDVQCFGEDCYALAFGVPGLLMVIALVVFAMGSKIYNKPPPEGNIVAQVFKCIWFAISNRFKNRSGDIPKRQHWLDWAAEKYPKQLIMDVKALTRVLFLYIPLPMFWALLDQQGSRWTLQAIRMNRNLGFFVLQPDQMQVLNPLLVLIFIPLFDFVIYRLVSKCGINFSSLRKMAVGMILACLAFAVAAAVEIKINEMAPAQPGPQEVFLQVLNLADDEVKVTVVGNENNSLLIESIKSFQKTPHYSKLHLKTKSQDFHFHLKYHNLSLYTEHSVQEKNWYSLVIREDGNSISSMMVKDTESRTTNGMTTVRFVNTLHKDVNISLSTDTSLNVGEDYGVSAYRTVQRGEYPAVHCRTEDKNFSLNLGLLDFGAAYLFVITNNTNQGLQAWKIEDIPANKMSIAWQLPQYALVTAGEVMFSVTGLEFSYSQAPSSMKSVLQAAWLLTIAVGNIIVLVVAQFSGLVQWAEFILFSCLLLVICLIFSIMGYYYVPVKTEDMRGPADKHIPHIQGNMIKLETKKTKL
Assay: Whole-cell AK-AMCA uptake competition assay in HsPepT2-transfected HEK293F cells
Assay type: cell-based
Conditions: for IC50: HsPepT2-transfected HEK293F cells, 50 μM β-Ala-Lys-AMCA, pH 6.0, 10 min at 37°C, read-out: IC50, concentration-dependent competition of β-Ala-Lys-AMCA uptake
Description: The wild-type […]2 gene was cloned into a pXLG vector ([61]) containing an expression cassette composed of an N-terminal hexa-histidine tag followed by enhanced green fluorescent protein and a tobacco etch virus protease cleavage site. […] The reaction was stopped by adding 200 μl of ice-cold buffer, and the cells were then washed three times with the same buffer. Last, the cells were resuspended in 200 μl of buffer, and the fluorescence was measured in an M1000 microplate reader (TECAN) with excitation at 350 nm and emission at 450 nm. All experiments were performed in triplicates. […] For concentration-dependent uptake experiments, IC50 values were processed in GraphPad Prism 9.0 (GraphPad Software) using sigmoidal four-parameter curve fitting.

Row | IC50 [µM] | Uptake of the fluorescent reporter after HsPepT2 overexpression (HEK293 cells overexpressing HsPepT2) | Compound
1 | 373.5 ± 1.6 |  | NCC(=O)CCC(=O)O [5-aminolevulinic acid]
2 | 368.9 ± 1.5 |  | CC(C)[C@H](N)C(=O)OCC(CO)OCn1cnc2c(=O)nc(N)[nH]c21 (stereo partly drawn) [valganciclovir]
3 |  | specific uptake | ß-Ala-Lys-AMCA

Reference: publication PMC8565842, “Structural snapshots of human PepT1 and PepT2 reveal mechanistic insights into substrate and drug transport across epithelial membranes” (Science Advances, 2021)
